What was measured:
Format in all cases: biochemical, Pseudomonas putida B-0781
nucleoside oxidase [1] = test: Substrate specificity: relative enzymatic activity on various substrates; details: substrate each 1 mM concentration
Experimental: Relative enzymatic activities on various substrates (nucleoside, nucleic acid base, sugar, and nucleotide, each 1 mM concentration) shown in Table 1 were measured.
A reaction mixture (0.5 ml) consisting of 0.2 M dimethylglutarate-NaOH buffer (pH 6.0) 0.2 ml, 0.2 w/w% N,N-diethyl-m-toluidine 0.05 ml, 0.3 w/w% 4-aminoantipyrine 0.05 ml, 10 mM adenosine 0.05 ml and distilled water 0.10 ml was pre-incubated at 37° C. for 3 minutes. After adding enzyme solution (20 μl), the mixture was incubated at 37° C. for 10 minutes, and 0.5 ml of 4 M urea solution containing 0.2% cetylpyridiniumchloride was added to stop the reaction. […] Then the enzyme solution was replaced by distilled water (20 μl) as a control (AB).
(§1) Enzymatic activity should be measured within the value of As below 0.15.
One unit (1 U.) of enzyme activity is that amount of enzyme such that 1μ mole of hydrogen peroxide is generated in one minute at 37° C. with adenosine as substrate, and represented by the following equation: […]

nucleoside oxidase [2] = test: Effect of metal ions on enzyme activity (Table 2); set-up: concentration or dose not given beside the values; details: control 100; 10 min
Experimental: as §1
(§2) One unit (1 U.) of enzyme activity is that amount of enzyme such that 1μ mole of hydrogen peroxide is generated in one minute at 37° C. with adenosine as substrate, and represented by the following equation:
(§3) Enzyme activity (U/ml)=1.25×(As-AB)×dilution ratio.

nucleoside oxidase [3] = test: Amount of oxygen consumption and hydrogen peroxide generation in the reaction
Experimental: The amount of consumed oxygen (measured by an oxygen electrode) and generated hydrogen peroxide (colorimetric assay at 545 nm) were measured. Results: adenosine 0.05μ mole; consumed oxygen 0.097μ mole; and generated hydrogen peroxide 0.101μ mole.

nucleoside oxidase [4] = test: Km value of the enzyme; details: for adenosine
Experimental: as §1, §2, §3

nucleoside oxidase [5] = test: Effect of surface active agent on enzyme activity (Table 3); details: 0.1 w/w % surface active agent; None 100
Experimental: as §1, §2, §3

Compound | Relative activity (nucleoside oxidase [1]) [%] | other results
Nc1ncnc2c1ncn2[C@H]1C[C@H](O)[C@@H](CO)O1 [2'-deoxyadenosine] | 99.1 | –
Nc1ncnc2c1ncn2[C@@H]1O[C@H](COP(=O)(O)OP(=O)(O)O)[C@@H](O)[C@H]1O [5'-ADP] | 0 | –
Nc1ncnc2c1ncn2[C@@H]1O[C@H](COP(=O)(O)O)[C@@H](O)[C@H]1O [5'-AMP] | 0 | –
Nc1ncnc2c1ncn2[C@@H]1O[C@H](COP(=O)(O)OP(=O)(O)OP(=O)(O)O)[C@@H](O)[C@H]1O [5'-ATP] | 0 | –
Nc1ccn([C@@H]2O[C@H](COP(=O)(O)O)[C@@H](O)[C@H]2O)c(=O)n1 [5'-CMP] | 0 | –
Nc1nc2c(ncn2[C@@H]2O[C@H](COP(=O)(O)O)[C@@H](O)[C@H]2O)c(=O)[nH]1 [5'-GMP] | 0 | –
O=c1ccn([C@@H]2O[C@H](COP(=O)(O)O)[C@@H](O)[C@H]2O)c(=O)[nH]1 [5'-UMP] | 0 | –
O=c1[nH]c(=O)c2ncn([C@@H]3O[C@H](COP(=O)(O)O)[C@@H](O)[C@H]3O)c2[nH]1 [5'-XMP] | 0 | –
[Ba+2] [Ba^2+] | – | Relative activity (nucleoside oxidase [2]): 100%
[Ca+2] [Ca^2+] | – | Relative activity (nucleoside oxidase [2]): 102%
[Co+2] [Co^2+] | – | Relative activity (nucleoside oxidase [2]): 104%
O=C[C@H](O)[C@H](O)[C@H](O)CO [D-ribose] | 0 | –
O=C(O)CN(CCN(CC(=O)O)CC(=O)O)CC(=O)O [EDTA, reference compound] | – | Relative activity (nucleoside oxidase [2]): 98%
[Mg+2] [Mg^2++] | – | Relative activity (nucleoside oxidase [2]): 104%
[Mn+2] [Mn^2+] | – | Relative activity (nucleoside oxidase [2]): 110%
O=C(O)c1cc[c]([Hg][Cl])cc1 [PCMB, reference compound] | – | Relative activity (nucleoside oxidase [2]): 102%
[Zn+2] [Zn^2+] | – | Relative activity (nucleoside oxidase [2]): 94%
Nc1ncnc2nc[nH]c12 [adenine] | 0 | –
Nc1ncnc2c1ncn2[C@@H]1O[C@H](CO)[C@@H](O)[C@H]1O [adenosine] | 100 | moles of hydrogen peroxide generated per 1 mole of adenosine (nucleoside oxidase [3]): 2 mol; moles of oxygen consumed per 1 mole of adenosine (nucleoside oxidase [3]): 2 mol; generated hydrogen peroxide (nucleoside oxidase [3]; adenosine 0.05 μ mole, nucleoside oxidase 3 U., colorimetric assay at 545 nm): 0.101 μ mole; consumed oxygen (nucleoside oxidase [3]; adenosine 0.05 μ mole, nucleoside oxidase 3 U., oxygen electrode): 0.097 μ mole; Km (nucleoside oxidase [4]): 45 µM

Compound | Relative activity (nucleoside oxidase [1]) [%] | other results
Nc1ncnc2c1ncn2[C@@H]1O[C@H](CO)[C@@H](O)[C@@H]1O [arabinosyladenine, reference compound] | 67.2 | –
Nc1ccn([C@@H]2O[C@H](CO)[C@@H](O)[C@@H]2O)c(=O)n1 [arabinosylcytosine, 1-β-D-arabinofuranosylcytosine, reference compound] | 8.1 | –
NC(=O)c1ncn([C@@H]2O[C@H](CO)[C@@H](O)[C@H]2O)c1O [bredinine, 4-carbamoyl-1-D-ribofuranosylimidazolium-5-olate, reference compound] | 48.2 | –
CCCCCCCCCCCCCCCC[N+](C)(C)C.[Cl-] [cetyl trimethylammonium chloride] | – | Relative activity (nucleoside oxidase [5]): 78%
Nc1ccn([C@@H]2O[C@H](CO)[C@@H](O)[C@H]2O)c(=O)n1 [cytidine] | 65.7 | –
Nc1nc2c(ncn2[C@@H]2O[C@H](CO)[C@@H](O)[C@H]2O)c(=O)[nH]1 [guanosine] | 97.1 | –
O=c1[nH]cnc2nc[nH]c12 [hypoxanthine] | 0 | –
OC[C@H]1O[C@@H](n2cnc3c(O)ncnc32)[C@H](O)[C@@H]1O [inosine] | 91.4 | –
C[C@H](CCC(=O)O)[C@H]1CC[C@H]2[C@@H]3CC[C@@H]4C[C@H](O)CC[C@]4(C)[C@H]3C[C@H](O)[C@]12C [sodium deoxycholate] | – | Relative activity (nucleoside oxidase [5]): 102%
CCCCCCCCCCCCOS(=O)(=O)[O-].[Na+] [sodium dodecyl sulfate] | – | Relative activity (nucleoside oxidase [5]): 66%
Cc1cn([C@H]2C[C@H](O)[C@@H](CO)O2)c(=O)[nH]c1=O [thymidine] | 94.3 | –
Cc1c[nH]c(=O)[nH]c1=O [thymine] | 0 | –
O=c1cc[nH]c(=O)[nH]1 [uracil] | 0 | –
O=c1ccn([C@@H]2O[C@H](CO)[C@@H](O)[C@H]2O)c(=O)[nH]1 [uridine] | 94.3 | –
O=c1[nH]c(=O)c2[nH]cnc2[nH]1 [xanthine] | 0 | –
O=c1[nH]c(=O)c2ncn([C@@H]3O[C@H](CO)[C@@H](O)[C@H]3O)c2[nH]1 [xanthosine] | 14.3 | –
O=P(O)(O)O[C@H]1O[C@H](CO)[C@@H](O)[C@H]1O [α-D-ribose-1-phosphate] | 0 | –
Triton X-100 | – | Relative activity (nucleoside oxidase [5]): 104%
sodium lauryl benzene sulfonate | – | Relative activity (nucleoside oxidase [5]): 38%
